Reference: patent US11154470B1, “Anti-inflammatory and senolytic dental care product with tooth whitening characteristics” (Credentis AG, priority 2020, dated 2021)

Experiment: Tooth whitening: colour change of tooth enamel measured with a dental spectrophotometer (L*a*b, ISO 28399)
Settings: peptide alone 7.5 mg/mL, without excipients; 24 h after application; 10 teeth, three measurements per tooth
Method: Suspensions of oligopeptide 104 (5 mg/ml) with or without hydroxyapatite particles (average size d50≤300 nm (Horiba); 40-60% crystallinity, 25 wt %) were generated.
The suspensions were directly applied onto an enamel surface of a tooth, and residues washed off (10 sec). The specimen was stored in distilled water for 24 hours at 37° C. The procedure was repeated 3 times.
The tooth colour was measured with a dental spectrophotometer (VITA Easyshade). The illumination conditions were standardized with a black box as the background for the teeth during the measurement. The tip was applied perpendicular to the tooth surface and the average L*a*b-values from three repetitions were used for evaluations. Colour measurement were done at baseline ([…]), 24 hours after first application (t1), 24 hours after second application (t3), 24 hours after the third application (t4).
The mean changes of the L*a*b-values between different measurements in each group were expressed as […]E (according to ISO 28399).
Oligopeptide 104 was used in a concentration of 7.5 mg/mL, i.e., the concentration was higher than the concentration of peptide used in the application alone. ΔE was determined 24 h after application, with three measurements per tooth and 10 teeth examined. ΔE was 0.62. […]

Work on QQRFEWEFEQQ (P11-4 / oligopeptide 104) yielded a ΔE of 0.62.
